Source: PubChem BioAssay AID2060898 (Molecular Pharmacology Branch, DTP, NCI, 2025)

Test system: 616215-338-R-J1-PDC complex spheroid viability
Assay: Anticancer human tumor 616215-338-R-J1-PDC patient-derived colon adenocarcinoma cell line growth inhibition [RAS]
Conditions: for IC50: curve of first compound; for viability, T/C: stronger effect = lower value
Source text: RAS pathway inhibitors in Combinations in Complex Spheroids
A high-throughput screen of multi-cell type tumor spheroids was designed to identify active combinations of RAS pathway inhibitors and targeted small molecules. Complex spheroids include a stromal component modeled by human endothelial cells (HUVEC) and fibroblasts modeled by human mesenchymal stem cells (MSCs). The concentration ranges selected for each drug and investigational agent were based upon clinically achievable concentrations if the clinical Cmax of the agent was known.
Compounds. The drugs and investigational agents: abemaciclib (NSC768073), cobimetinib (NSC768068), divarasib (GDC6063, NSC841802), docetaxel (NSC628503), GDC-1971 (RLY-1971, NSC841576), gemcitabine (NSC613327), inavolisib (NSC800729), ipatasertib (NSC767898), KB-0742 (NSC834161), MRTX-1133 (NSC836407), osimertinib (NSC779217), RMC-4630 (NSC839698), RMC-6236 (NSC851965), RMC-6291 (NSC852671), Ro-3306 (NSC812927), sapanisertib (NSC764658), SN-38 (NSC673596), staurosporine (NSC755774), SY5609 (NSC837396), and tovorafenib (DAY101, NSC766906), were obtained from the National Cancer Institute (NCI) Developmental Therapeutics Program Chemical Repository. The FDA-approved anticancer drug set is available from the NCI Developmental Therapeutics Program. […] The stock solutions were prepared in dimethyl sulfoxide (DMSO, Sigma-Aldrich, St. Louis, MO, cat. D2650) at 800-fold the tested concentration and stored at -70 degrees C prior to their use. All drugs and investigational agents were tested over a range starting from a high concentration at or near the clinical Cmax and decreasing in half-log increments. If the clinical Cmax for an agent had not been determined, the highest concentration tested was 10 microM.
Cell Culture. All cells were maintained in an incubator at 37 degrees C and 5% CO2 with 95% humidity. The PDC lines were cultured according to standard operating procedures established by the NCI PDMR. All PDCs were thawed and cultured in Matrigel-coated flasks prepared with a working solution of 1X Ham's F-12 nutrient mix, without supplementation (Invitrogen, Waltham, MA, cat. 11765054), 100 U/mL penicillin-streptomycin (Invitrogen, cat. 15140122), and 2.5% Matrigel (Corning Inc., Corning, NY, cat. 354248) for the first three passages. The 362531-283-R-J2-PDC and 782815-120-R-J1-PDC lines were cultured in 6C/Colon 1B media, which includes advanced DMEM/F-12 (Thermo Fisher Scientific, cat. 12634028), 10 mM HEPES (Thermo Fisher Scientific, cat. 15630080), 1X GlutaMAX supplement (Thermo Fisher Scientific, cat. 35050061), 0.1 mg/mL primocin (InvivoGen, San Diego, CA, cat. ant-pm-2), 10% defined fetal bovine serum, heat inactivated (HyClone Laboratories Inc., Logan, UT, cat. SH30070.03HI), 50% L-WRN conditioned media (ATCC, cat. CRL-3276), 1.25 mM N-Acetyl-L-cysteine (Sigma-Aldrich, cat. A9165), 10 mM nicotinamide (Sigma-Aldrich, cat. N0636), 1X B-27 supplement (Thermo Fisher Scientific, cat. 17504044), 1X N-2 supplement (Thermo Fisher Scientific, cat. 17502048), 50 ng/mL human EGF (Thermo Fisher Scientific, cat. PHG0311), and 10 microM Y-27632 dihydrochloride (Tocris Bioscience, cat. 1254). The K12877-001-R-J1-PDC line was cultured in 6I media, which includes all 6C/Colon 1B media plus 10 ng/mL human FGF-10 (PeproTech, cat. 100-26), 1 ng/mL human FGF-2 (PeproTech, cat. 100-18B), 1 µM prostaglandin E2 (Tocris Bioscience, cat. 2296), […] hydrocortisone (Sigma-Aldrich, cat. H4001), and […] bovine insulin (Sigma-Aldrich, cat. I6634). The K86415-001-R-J1-PDC line was cultured in 6D media, which includes all 6C/Colon 1B media components minus the L-WRN conditioned media. The 485176-168-R4-J1-PDC was cultured in PANC media, which includes all 6C/Colon 1B media plus 100 ng/mL human FGF-10 (PeproTech, cat. 100-26), 500 nM SB-431542 (Selleckchem, cat. S1067), and 10 nM gastrin (Tocris Bioscience, cat. 3006). […]
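Note: spheroids exposed to agents for seven days before viability readout.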
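Throughout, for viability, T/C: 100% = DMSO vehicle control viability.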

With `CC(Nc1ccc2c(c1)OCCn1cc(N3C(=O)OCC3C(F)F)nc1-2)C(N)=O` (configuration not stated) + C#Cc1c(F)ccc2cc(O)cc(-c3ncc4c(N5CC6CCC(C5)N6)nc(OCC56CCCN5CC(F)C6)nc4c3F)c12 the IC50 (second compound 0.0316 µM) was > 10 µM, the IC50 (second compound 0.1 µM) was > 10 µM and the IC50 (second compound 0.316 µM) was > 10 µM. For the same compound, the IC50 (second compound 1 µM) was > 10 µM, the IC50 (second compound 3.16 µM) was > 10 µM and the IC50 (second compound 10 µM) was < 0.0316 µM. It also gave a viability, T/C (second compound 0.0316 µM, first compound 0.0316 µM) of 98.9%, a viability, T/C (second compound 0.0316 µM, first compound 0.1 µM) of 132% and a viability, T/C (second compound 0.0316 µM, first compound 0.316 µM) of 104%. It also gave a viability, T/C (second compound 0.0316 µM, first compound 1 µM) of 104%, a viability, T/C (second compound 0.0316 µM, first compound 3.16 µM) of 101% and a viability, T/C (second compound 0.0316 µM, first compound 10 µM) of 73%. The viability, T/C (second compound 0.1 µM, first compound 0.0316 µM) was 104%, the viability, T/C (second compound 0.1 µM, first compound 0.1 µM) was 115% and the viability, T/C (second compound 0.1 µM, first compound 0.316 µM) was 113%. It also gave a viability, T/C (second compound 0.1 µM, first compound 1 µM) of 106%, a viability, T/C (second compound 0.1 µM, first compound 3.16 µM) of 98.5% and a viability, T/C (second compound 0.1 µM, first compound 10 µM) of 78.2%. For the same compound, the viability, T/C (second compound 0.316 µM, first compound 0.0316 µM) was 102%, the viability, T/C (second compound 0.316 µM, first compound 0.1 µM) was 122% and the viability, T/C (second compound 0.316 µM, first compound 0.316 µM) was 111%. It also gave a viability, T/C (second compound 0.316 µM, first compound 1 µM) of 108%, a viability, T/C (second compound 0.316 µM, first compound 3.16 µM) of 101% and a viability, T/C (second compound 0.316 µM, first compound 10 µM) of 76.8%. For the same compound, the viability, T/C (second compound 1 µM, first compound 0.0316 µM) was 116%, the viability, T/C (second compound 1 µM, first compound 0.1 µM) was 115% and the viability, T/C (second compound 1 µM, first compound 0.316 µM) was 106%. The viability, T/C (second compound 1 µM, first compound 1 µM) was 100%, the viability, T/C (second compound 1 µM, first compound 3.16 µM) was 98.1% and the viability, T/C (second compound 1 µM, first compound 10 µM) was 73.8%. It also gave a viability, T/C (second compound 3.16 µM, first compound 0.0316 µM) of 73.4%, a viability, T/C (second compound 3.16 µM, first compound 0.1 µM) of 84.4% and a viability, T/C (second compound 3.16 µM, first compound 0.316 µM) of 81.3%. It also gave a viability, T/C (second compound 3.16 µM, first compound 1 µM) of 85.8%, a viability, T/C (second compound 3.16 µM, first compound 3.16 µM) of 91.5% and a viability, T/C (second compound 3.16 µM, first compound 10 µM) of 65.6%. For the same compound, the viability, T/C (second compound 10 µM, first compound 0.0316 µM) was 50.7%, the viability, T/C (second compound 10 µM, first compound 0.1 µM) was 38.7% and the viability, T/C (second compound 10 µM, first compound 0.316 µM) was 34%. It also gave a viability, T/C (second compound 10 µM, first compound 1 µM) of 43.4%, a viability, T/C (second compound 10 µM, first compound 3.16 µM) of 31.6% and a viability, T/C (second compound 10 µM, first compound 10 µM) of 34.3%.
